Values of other authors in patent publication US10688070B2, “Serine glycerophospholipid preparation and method for treatment of seizures” (ENZYMOTEC LTD., priority 2013, dated 2020).

System: Valproate adverse events (hepatotoxicity)
Settings: in vivo

## CC/C=C\C/C=C\C/C=C\C/C=C\C/C=C\CCCC(=O)O [EPA, Eicosapentanoic acid]
  Effect on adverse events of Valproate: did not reveal the same effect
